Test results published in PMC4805082, “Seizure control by decanoic acid through direct AMPA receptor inhibition” (Brain, 2015).
Read-outs that look alike come from different tables or passages of the source.

Columns and labels:
[1] = test system: AMPA receptor mediated EPSCs in hippocampal CA1 pyramidal neurons; assay: Whole-cell patch clamp, evoked AMPA receptor mediated EPSCs in CA1 pyramidal cells; type: cell-based, rat; conditions: n = 6
Protocol: Male Sprague-Dawley rats (postnatal Days 19–30) were sacrificed using an overdose of isoflurane or pentobarbitone (500 mg/kg). After decapitation the brain was rapidly removed, the hippocampus or entorhinal cortex-hippocampus slices was dissected from the brain and […] thick transverse slices were prepared on a VT1200S vibratome (Leica) or Vibratome (Vibratome® 1500 sectioning system, Intracell). The slicing was performed in ice-cold sucrose-based solution containing (in mM): 75 sucrose, 87 NaCl, 22 glucose, 2.5 KCl, 7 MgCl2, 1.25 NaH2PO4, 0.5 CaCl2 and 25 NaHCO3, pH 7.4, 315–330 mOsm equilibrated with 95% O2 plus 5% CO2. The slices were then stored in a continuously oxygenated humidified interface holding chamber containing oxygenated artificial CSF (in mM): 120 NaCl, 22 glucose, 2.5 KCl, 1.3 MgSO4, 1 NaH2PO4, 25 NaHCO3 and 2.5 CaCl2, pH 7.4 296 mOsm, where they recovered for at least 1 h before use.
For electrophysiological recording, the slices were placed in a recording chamber constantly perfused with 32–34°C oxygenated artificial CSF solution using a gravity-driven perfusion system. Whole-cell patch clamp recordings were performed on CA1 pyramidal cells (input resistance 330 ± 70 MΩ) visualized using an infrared differential contrast imaging system. For patching, standard walled borosilicate glass pipettes with a resistance of 2.5–3.5 MΩ were used, filled with an intracellular pipette solution containing (in mM): 120 Cs-methanesulphonate, 10 HEPES, 0.2 EGTA, 8 NaCl, 0.2 MgCl2, 2 Mg-ATP, 0.3Na-GTP, 5 QX314-Br, 10 phosphocreatine, pH adjusted to 7.2 and osmolality adjusted to 296 mOsm. Series resistance was monitored throughout experiments using a −5 mV step command and cells showing a >20% change in series resistance, a series of resistance of >20 MΩ or an unstable holding current were rejected. Recordings of excitatory postsynaptic currents (EPSCs) were performed in the presence of DL-APV (DL-2-amino-5-phosphonopentanoic; 100 µM), picrotoxin (100 µM) and CGP55845 (5 µM) to block NMDA-, GABAA- and GABAB-receptors, respectively. Decanoic acid (Sigma) was added to the perfusion solution. EPSCs were evoked by stimulation of Schaffer collaterals. Paired pulses were evoked with stimulations separated by 50 ms. Inhibitory postsynaptic current (IPSCs) were recorded in the presence of DL-APV (100 µM), NBQX (10 µM) and CGP55845 (5 µM) to block NMDA-, AMPA- and GABAB-receptors, respectively.
Recordings were obtained using a MultiClamp 700B amplifier (Axon instruments) and filtered at 4 kHz, digitized at 10 kHz, and stored on a PC. LabView8 (National instruments) was used for data acquisition and off-line analysis.

AMPA receptor GluA2/3 = target: T1, AMPA receptor GluA2/3 (Homo sapiens, UniProt P42262+P42263); assay: Two-electrode voltage clamp, AMPA receptor GluA2/3 expressed in Xenopus oocytes; type: cell-based
T1 construct: expressed in transfected cells; host or cells: Xenopus laevis oocytes injected with cRNA (1:1 mix)
Protocol: The AMPA receptor (flip isoform) cDNAs inserted in a SP6 polymerase expression vector (pSP6T) were a generous gift from Prof. Ralf Schoepfer (NPP, UCL). […] AMPA receptor cRNAs were mixed in a nominal 1:1 ratio and ∼5 ng was injected per oocyte.
Xenopus laevis oocytes were purchased from the European Xenopus Resource Centre, University of Portsmouth. Stage V to VI oocytes were mechanically dissected and then subjected to gentle shaking for ∼30–50 min at room temperature with modified Barth’s solution (in mM): 88 NaCl, 1 KCl, 2.4 NaHCO3, 0.82 MgCl2, 0.77 CaCl2, 15 Tris-Cl, adjusted to pH 7.4 with NaOH (Sigma-Aldrich), supplemented with 50 IU/ml penicillin and 50 µg/ml streptomycin (Invitrogen) and 50 µg/ml tetracycline (Sigma-Aldrich) and 1% collagenase (type 1A). Healthy oocytes were manually defolliculated and the injections of cRNA for homomeric subunits alone (GluA1), or heteromeric mixtures of two subunits together (GluA1/GluA2 or GluA2/GluA3) were made using an automated Drummond Nanoinject II injector. The oocytes were then incubated at 17°C in modified Barth’s solution for at least 48 h before use in electrophysiological recordings.
Experiments were performed at room temperature (∼21–23°C). […] Current and voltage electrodes were filled with 300 mM KCl and made from thin-walled borosilicate glass (GC150TF-7.5, Harvard Apparatus) using a PC-10 electrode puller (Narashige Instruments) and had resistances of 0.5–2 MΩ. […] Compounds were dissolved in distilled water or DMSO and dissolved in bathing solution to achieve their final concentrations during experiments, and were applied under gravity flow during the experiment by using a multi-valve perfusion system (VC3-8C, ALA Scientific Instruments). The bath solutions were perfused at a rate of 10 ml/min. […] Data acquisition was performed using the Windows PC-based program, WinEDR v3.0.6 (John Dempster, University of Strathclyde, UK).
Statistical analysis was performed using ANOVA with Tukey post hoc test, paired t-test or unpaired t-test.

[2] = set-up: method as in earlier work; conditions: average; children with intractable epilepsy on MCT diet; ref Haidukewych et al., 1982; Sills et al., 1986a; Dean et al., 1989; cited from earlier work
[3] = set-up: method as in Wlaz et al., 2012; conditions: mice, gastric gavage 30 mmol/kg; ref Wlaz et al., 2012; cited from earlier work

T1 sequence (P42262 22-883 isoform P42262-2 limits assumed): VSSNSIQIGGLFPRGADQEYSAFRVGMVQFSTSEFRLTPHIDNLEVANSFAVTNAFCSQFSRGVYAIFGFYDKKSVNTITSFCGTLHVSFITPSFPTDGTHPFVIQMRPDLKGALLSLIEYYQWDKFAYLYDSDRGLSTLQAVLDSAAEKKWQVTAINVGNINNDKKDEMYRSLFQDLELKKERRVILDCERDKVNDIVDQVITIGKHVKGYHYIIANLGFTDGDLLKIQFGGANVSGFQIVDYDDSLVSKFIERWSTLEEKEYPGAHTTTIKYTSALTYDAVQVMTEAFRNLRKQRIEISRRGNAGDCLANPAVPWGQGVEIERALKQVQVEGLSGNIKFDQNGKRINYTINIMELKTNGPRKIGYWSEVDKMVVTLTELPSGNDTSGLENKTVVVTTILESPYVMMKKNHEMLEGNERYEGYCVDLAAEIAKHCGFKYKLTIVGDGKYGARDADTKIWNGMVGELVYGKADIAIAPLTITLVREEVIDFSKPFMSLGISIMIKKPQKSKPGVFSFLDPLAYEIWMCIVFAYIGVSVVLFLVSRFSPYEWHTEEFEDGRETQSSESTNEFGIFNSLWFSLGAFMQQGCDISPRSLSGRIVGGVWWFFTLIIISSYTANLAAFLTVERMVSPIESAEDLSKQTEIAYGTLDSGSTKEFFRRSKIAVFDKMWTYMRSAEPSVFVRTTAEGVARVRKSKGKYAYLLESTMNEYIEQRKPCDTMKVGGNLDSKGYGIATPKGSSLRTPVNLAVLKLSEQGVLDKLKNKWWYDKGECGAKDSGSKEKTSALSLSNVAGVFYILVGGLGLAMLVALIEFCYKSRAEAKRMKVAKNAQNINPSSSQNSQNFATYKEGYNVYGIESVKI
T1 sequence (P42263 29-894 isoform P42263-2 limits assumed): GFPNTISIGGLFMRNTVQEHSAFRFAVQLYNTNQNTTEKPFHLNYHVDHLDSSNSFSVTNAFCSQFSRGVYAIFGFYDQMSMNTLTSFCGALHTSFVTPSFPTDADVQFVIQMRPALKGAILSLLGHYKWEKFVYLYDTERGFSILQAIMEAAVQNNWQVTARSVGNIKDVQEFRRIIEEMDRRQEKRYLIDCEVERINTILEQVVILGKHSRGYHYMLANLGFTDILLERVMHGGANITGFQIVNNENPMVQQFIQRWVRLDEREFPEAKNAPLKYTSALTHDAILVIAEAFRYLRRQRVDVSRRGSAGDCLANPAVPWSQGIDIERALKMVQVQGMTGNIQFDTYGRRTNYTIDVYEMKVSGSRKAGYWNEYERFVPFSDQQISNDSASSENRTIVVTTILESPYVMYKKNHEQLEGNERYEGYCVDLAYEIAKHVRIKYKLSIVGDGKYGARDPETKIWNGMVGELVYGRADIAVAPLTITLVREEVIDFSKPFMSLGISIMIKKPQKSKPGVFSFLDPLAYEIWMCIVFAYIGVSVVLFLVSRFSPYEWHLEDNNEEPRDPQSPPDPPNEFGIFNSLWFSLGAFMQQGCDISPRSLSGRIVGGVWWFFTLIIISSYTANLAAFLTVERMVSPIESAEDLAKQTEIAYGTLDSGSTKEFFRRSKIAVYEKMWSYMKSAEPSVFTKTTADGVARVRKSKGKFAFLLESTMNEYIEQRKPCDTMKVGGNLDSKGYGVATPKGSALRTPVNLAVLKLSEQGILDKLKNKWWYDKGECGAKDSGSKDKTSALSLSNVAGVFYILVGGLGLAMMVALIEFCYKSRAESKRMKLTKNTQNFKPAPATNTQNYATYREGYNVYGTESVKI

For `CCCCCCCCCC(=O)O` [decanoic acid], the “decrease of EPSC amplitude” value ([1]; 100 µM) was 17.0 ± 5.6%, the “decrease of EPSC amplitude” value ([1]; 300 µM) was 38.9 ± 5.5% and the “effect on 1/CV^2 for EPSCs” value ([1]; 300 µM, versus baseline) was “no effect”. The “effect on paired pulse ratio for EPSCs” value ([1]; 300 µM, versus baseline) was “did not affect”, the inhibition at 100 µM (AMPA receptor GluA2/3; 100 µM, read-out: inhibition of AMPA-mediated currents) was about 20% and the “decrease in AMPA receptor responses” value (AMPA receptor GluA2/3; 1 mM) was 60–70%. The “AMPA receptor current following activation with AMPA” value (AMPA receptor GluA2/3; agonist AMPA 30 µM, n = 8) was 16.7 ± 2.7 % of AMPA alone, the AMPA receptor currents (AMPA receptor GluA2/3; compound 1 mM, currents elicited by 100 µM L-glutamate, −50 mV) was 32.4 ± 2.0 % of control and the IC50 (AMPA receptor GluA2/3; glutamate 100 µM, membrane potential −40 mV, n = 6, read-out: IC50) was 430 ± 90 µM. For the same molecule, the IC50 (AMPA receptor GluA2/3; glutamate 100 µM, membrane potential −80 mV, n = 6, read-out: IC50) was 1110 ± 50 µM, the IC50 (AMPA receptor GluA2/3; glutamate 100 µM, read-out: IC50, inhibition of glutamate-induced AMPA receptor current) was 520 ± 20 µM and the IC50 (AMPA receptor GluA2/3; glutamate 1 mM, n = 10, read-out: IC50, inhibition of glutamate-induced AMPA receptor current) was 540 ± 30 µM. For the same molecule, the serum concentration [2] was 156.7 µM, the brain concentration [3] was “up to 240 µM” and the “brain concentration as share of serum levels” value [3] was 60–80%.
